Patent US11440913B2, “Aminoimidazopyridazines as kinase inhibitors” (BRISTOL-MYERS SQUIBB COMPANY, priority 2017, dated 2022)

Experiments:
[1] = target: His-GST-TVMV-hRIPK1(1-324) (Homo sapiens (Human), UniProt Q13546); assay: RIPK1 HTRF Binding Assay; conditions: HTRF binding, 1 h at rt; read-out: RIPK1 (IC50)
How it was run: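 HTRF probe-displacement binding: 1 nM His-GST-TVMV-hRIPK1(1-324) (baculovirus construct), 90.6 nM probe, 0.2 nM anti-GST-Tb in 20 mM HEPES, 10 mM MgCl2, 0.015% Brij-35, 4 mM DTT, 0.05 mg/mL BSA. Incubated 1 h at rt; FRET 520/495 nm ratio, inhibition relative to DMSO-only wells.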

[2] = test system: MLKL phosphorylation in HT29-L23 human colorectal adenocarcinoma cells; assay: MLKL Phosphorylation High-Content Assay; assay type: cell-based; conditions: Homo sapiens, 6 h, necroptosis induced with TNFα, SMAC mimetic and Z-VAD, read-out: pMLKL (IC50)
How it was run: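 HT29-L23 cells pretreated 30 min at 37 °C with compound (6.25 to 0.106 μM final), then necroptosis induced with TNFα 35 ng/mL, SMAC mimetic 700 nM and Z-VAD 140 nM for 6 h. Fixed cells immunostained for MLKL pS358 and imaged; IC50 and Ymax from 4-parameter logistic fit.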

Chain of His-GST-TVMV-hRIPK1(1-324) (Q13546 1-324): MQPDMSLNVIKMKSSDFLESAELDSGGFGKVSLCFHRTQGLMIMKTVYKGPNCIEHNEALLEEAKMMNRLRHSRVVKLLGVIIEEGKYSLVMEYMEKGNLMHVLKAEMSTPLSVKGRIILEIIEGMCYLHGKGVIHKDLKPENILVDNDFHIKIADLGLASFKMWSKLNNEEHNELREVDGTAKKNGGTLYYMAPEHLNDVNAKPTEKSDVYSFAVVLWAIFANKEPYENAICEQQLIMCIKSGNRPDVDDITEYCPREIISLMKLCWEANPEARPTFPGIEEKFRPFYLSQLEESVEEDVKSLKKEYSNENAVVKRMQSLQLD

`COc1ncc(-c2ccc3nc(NC(=O)C(C)(C)C#N)cn3n2)cc1C(=O)NCc1cc(OCC2CC2)ccc1F` [Example 29, 5-[2-(2-cyano-2,2-dimethylacetamido)imidazo[1,2-b]pyridazin-6-yl]-N-{[5-(cyclopropylmethoxy)-2-fluorophenyl]methyl}-2-methoxypyridine-3-carboxamide] gave an IC50 [1] of 257 nM and an IC50 [2] of 450 nM.
Compound `CC(=O)Nc1cn2nc(-c3cnc(C(F)(F)F)c(C(=O)NCc4cc(C(F)(F)F)ccc4F)c3)ccc2n1` [Example 30, 5-{2-acetamidoimidazo[1,2-b]pyridazin-6-yl}-N-{[2-fluoro-5-(trifluoromethyl)phenyl]methyl}-2-(trifluoromethyl)pyridine-3-carboxamide] has an IC50 [1] of 199 nM and an IC50 [2] of 341 nM.
Work on `CC(=O)Nc1cn2nc(-c3cnc(C(F)(F)F)c(C(=O)NCc4c(F)ccc(F)c4OCC4CC4)c3)ccc2n1` [Example 31, N-{[2-(cyclopropylmethoxy)-3,6-difluorophenyl]methyl}-5-{2-acetamidoimidazo[1,2-b]pyridazin-6-yl}-2-(trifluoromethyl)pyridine-3-carboxamide] yielded an IC50 [1] of 82 nM and an IC50 [2] of 339 nM.
For `COc1ncc(-c2ccc3nc(NC(=O)CC#N)cn3n2)cc1C(=O)NCc1ccccc1OC(F)(F)F` [Example 32, 5-[2-(2-cyanoacetamido)imidazo[1,2-b]pyridazin-6-yl]-2-methoxy-N-{[2-(trifluoromethoxy)phenyl]methyl}pyridine-3-carboxamide], the IC50 [1] was 78 nM and the IC50 [2] was 177 nM.
`COc1ncc(-c2ccc3nc(NC(=O)CC#N)cn3n2)cc1C(=O)NCc1cc(OC(F)(F)F)ccc1F` [Example 33, 5-[2-(2-cyanoacetamido)imidazo[1,2-b]pyridazin-6-yl]-N-{[2-fluoro-5-(trifluoromethoxy)phenyl]methyl}-2-methoxypyridine-3-carboxamide] gave an IC50 [1] of 186 nM and an IC50 [2] of 183 nM.
`COc1ncc(-c2ccc3nc(NC(=O)CO)cn3n2)cc1C(=O)NCc1cc(C(F)(F)F)ccc1F` [Example 34, N-{[2-fluoro-5-(trifluoromethyl)phenyl]methyl}-5-[2-(2-hydroxyacetamido)imidazo[1,2-b]pyridazin-6-yl]-2-methoxypyridine-3-carboxamide] was tested, and the IC50 [1] was 96 nM and the IC50 [2] was 215 nM.
With `COc1ncc(-c2ccc3nc(NC(=O)CO)cn3n2)cc1C(=O)NCc1cc(OC(F)(F)F)ccc1F` [Example 35, N-{[2-fluoro-5-(trifluoromethoxy)phenyl]methyl}-5-[2-(2-hydroxyacetamido)imidazo[1,2-b]pyridazin-6-yl]-2-methoxypyridine-3-carboxamide] the IC50 [1] was 25 nM and the IC50 [2] was 130 nM.
Work on `COc1ncc(-c2ccc3nc(NC(=O)C(C)(C)O)cn3n2)cc1C(=O)NCc1cc(OC(F)(F)F)ccc1F` [Example 36, N-{[2-fluoro-5-(trifluoromethoxy)phenyl]methyl}-5-[2-(2-hydroxy-2-methylpropanamido)imidazo[1,2-b]pyridazin-6-yl]-2-methoxypyridine-3-carboxamide] yielded an IC50 [1] of 48 nM and an IC50 [2] of 92 nM.
Work on `COc1ccc(F)c(CNC(=O)c2cc(-c3ccc4nc(NC(C)=O)cn4n3)c(C)nc2C)c1` [Example 37, 5-(2-acetamidoimidazo[1,2-b]pyridazin-6-yl)-N-(2-fluoro-5-methoxybenzyl)-2,6-dimethylnicotinamide] yielded an IC50 [1] of 67 nM and an IC50 [2] of 208 nM.
In the case of `Cc1nc(C)c(-c2ccc3nc(NC(=O)CO)cn3n2)cc1C(=O)NCc1cc(OC(F)(F)F)ccc1F` [Example 38, N-(2-fluoro-5-(trifluoromethoxy)benzyl)-5-(2-(2-hydroxyacetamido)imidazo[1,2-b]pyridazin-6-yl)-2,6-dimethylnicotinamide], the IC50 [1] is reported as 13 nM and the IC50 [2] is reported as 34 nM.
Compound `Cc1ncc(-c2ccc3nc(NC(=O)CO)cn3n2)cc1C(=O)NCc1cc(OC(F)(F)F)ccc1F` [Example 39, N-{[2-fluoro-5-(trifluoromethoxy)phenyl]methyl}-5-[2-(2-hydroxyacetamido)imidazo[1,2-b]pyridazin-6-yl]-2-methylpyridine-3-carboxamide] has an IC50 [1] of 55 nM and an IC50 [2] of 119 nM.
